In patent publication US20220008391A1, “NOVEL COMPOUNDS FOR CONTROLLING ARTHROPODS” (Bayer Animal Health GmbH, priority 2018, published 2022):
Read-outs that look alike come from different tables or passages of the source.

Columns and labels:
[1] = Evaluation of pharmacokinetics (in vivo), rat; conditions: concentration of parent compound A
Description: Evaluation of Pharmacokinetics (In Vivo) To evaluate the pharmacokinetics of test substances in vivo, these test substances are dissolved in appropriate formulation vehicles (ethanol, dimethyl sulfoxide, PEG400, glycerol formal etc.), or mixtures thereof. The test substances are then administered to rats or dogs intravenously, orally or subcutaneously. The intravenous application is performed as bolus. Administered doses range usually between 0.1 to 5 mg/kg, however, doses for subcutaneous and oral administration can exceed this range up to doses of 30 mg/kg. Blood samples are retrieved via a catheter, exsanguination or venous puncture in vials containing appropriate anticoagulants, such as lithium heparinate or potassium EDTA. Plasma is generated from the blood via centrifugation. Blood samples are taken over an appropriate time interval, usually lasting up to 144h after administration. If necessary, samples from later time points can also be taken. If possible, time points are chosen so that the initial absorption phase, the maximum plasma concentration (Cmax), and exposure within a certain time interval (AUC(0-t)) are described. Furthermore, it is possible to also retrieve organ-, tissue- and urine samples. The quantitative measurement of the test substances in the samples is performed using calibration curves in the respective matrices. The protein content of the samples is precipitated using acetonitrile or methanol. Thereafter, the samples are separated using HPLC in combination with reversed phase chromatography columns. The HPLC system is coupled to a triple quadrupole mass spectrometer via an electrospray interface. The evaluation of the plasma concentration/time profiles are afterwards evaluated using a validated pharmacokinetics evaluation program. […] Relative bioavailability (Frel) was used to describe the exposure of parent after prodrug administration compared to the exposure of parent after direct administration of compound A which was normalised to 100%.

[2] = Evaluation of pharmacokinetics (in vivo), dog; conditions: concentration of parent compound A
Description: Evaluation of Pharmacokinetics (In Vivo) To evaluate the pharmacokinetics of test substances in vivo, these test substances are dissolved in appropriate formulation vehicles (ethanol, dimethyl sulfoxide, PEG400, glycerol formal etc.), or mixtures thereof. The test substances are then administered to rats or dogs intravenously, orally or subcutaneously. The intravenous application is performed as bolus. Administered doses range usually between 0.1 to 5 mg/kg, however, doses for subcutaneous and oral administration can exceed this range up to doses of 30 mg/kg. Blood samples are retrieved via a catheter, exsanguination or venous puncture in vials containing appropriate anticoagulants, such as lithium heparinate or potassium EDTA. Plasma is generated from the blood via centrifugation. Blood samples are taken over an appropriate time interval, usually lasting up to 144h after administration. If necessary, samples from later time points can also be taken. […] The quantitative measurement of the test substances in the samples is performed using calibration curves in the respective matrices. […] The evaluation of the plasma concentration/time profiles are afterwards evaluated using a validated pharmacokinetics evaluation program. […]

Dermacentor variabilis [3] = assay: Antiparasitic activity after administration to rats, tick nymphs; assay type: in vivo; conditions: Dermacentor variabilis, ip, 10 mg/kg, DV N
Description: (§1) Measurement of the Antiparasitic Activity after Administration of a Prodrug to Rats Compounds were dissolved in the appropriate volume of glycerol formal (p.a.) just before application to the animals (dose volume was adjusted to 0.03 mL/kg bodyweight). 5 rats per group were either injected intraperitoneally or subcutaneously. Rats were infested with 30 Dermacentor variabilis nymphs on study days −2, 7, 14, 21, 28, 35 and 30 adult Ctenocephalides fleas on study days −1, 8, 15, 22, 29, 36. […] Percent efficacy was calculated as arithmetic mean parasite numbers as life attached tick numbers and live flea numbers of the respective study group in comparison to parasite counts on a placebo-treated control group. Infestation of groups with less than 75% efficacy on two consecutive counting occasions will terminated for the respective parasite.

Ctenocephalides felis [4] = assay: Antiparasitic activity after administration to rats, fleas; assay type: in vivo; conditions: Ctenocephalides felis, ip, 10 mg/kg, CF A
Description: as §1

Ixodes ricinus = assay: Antiparasitic activity after administration to dogs, I. ricinus ticks; assay type: in vivo; conditions: IR
Description: (§2) Measurement of the Antiparasitic Activity after Administration of a Prodrug to Dogs
(§3) Compounds were dissolved in the appropriate volume of glycerol formal (p.a.) just before application to the animals (dose volume was adjusted to 0.1 ml/kg bodyweight). Dogs were injected intravenously respective subcutaneously (see table 8 for details).
(§4) Dogs were infested with ectoparasites according to table on study 1 day prior to counting for fleas, 2 days prior to counting for RS, IR, DV ticks and 3 days prior to counting for AA ticks. For this purpose, dogs were placed in an individually labeled box with grid windows. The ticks were released onto the back of the dogs and were allowed to disperse and move into the hair without disturbance. The dog remained in the box for approximately 120 minutes with the lid closed and the light switched off in the room. For flea infestations, flea containers were opened in the animal's cage and fleas were applied on the dog's back between the shoulders.
(§5) Tick counts including removal of I. ricinus, R. sanguineus and D. variabilis were conducted 48(±4) hours after the infestation. Tick counts including removal of A. americanum were conducted 72(±4) hours after the infestation. Flea counts were conducted 24(±4) hours after the infestation.
(§6) On each parasite assessment day percent efficacy was calculated as arithmetic mean parasite numbers as life attached and live free tick numbers and live flea numbers of the respective study group in comparison to parasite counts on a placebo non-treated control group.

Dermacentor variabilis [5] = assay: Antiparasitic activity after administration to dogs, D. variabilis ticks; assay type: in vivo; conditions: DV
Description: as §2, §3, §4, §5, §6

Amblyomma americanum = assay: Antiparasitic activity after administration to dogs, A. americanum ticks; assay type: in vivo; conditions: AA
Description: as §2, §3, §4, §5, §6

Rhipicephalus sanguineus = assay: Antiparasitic activity after administration to dogs, R. sanguineus ticks; assay type: in vivo; conditions: RS
Description: as §2, §3, §4, §5, §6

Ctenocephalides felis [6] = assay: Antiparasitic activity after administration to dogs, fleas; assay type: in vivo; conditions: iv, 2 × 5 mg/kg, CF
Description: as §2, §3, §4, §5, §6

[7] = iv bolus of the named substance
[8] = sc administration of the named substance
[9] = 48 h, study day 2, read-out: Efficacy SD2
[10] = 216 h, study day 9, read-out: Efficacy SD9
[11] = 384 h, study day 16, read-out: Efficacy SD16
[12] = iv, 2 × 5 mg/kg, study 1, month 1
[13] = iv, 2 × 5 mg/kg, study 1, month 2
[14] = iv, 2 × 5 mg/kg, study 1, month 3
[15] = iv, 2 × 5 mg/kg, study 1, month 4
[16] = iv, 2 × 5 mg/kg, study 1, month 5
[17] = iv, 2 × 5 mg/kg, study 1, month 6

In the case of `N#CC1(NC(=O)c2cc(-c3cnn(-c4c(Cl)cc(C(F)(C(F)(F)F)C(F)(F)F)cc4OC(F)(F)F)c3)ccc2Cl)CC1` [Parent Compound A, 2-Chlor-5-{1-[2-chlor-4-(1,1,1,2,3,3,3-heptafluorpropan-2-yl)-6-(trifluormethoxy)phenyl]-1H-pyrazol-4-yl}-N-(1-cyanocyclopropyl)benzamide], the “AUC(0-144 h)norm of parent compound A” value [1, 7] is reported as 11 kg·h/L, the “AUC(0-24)norm of parent compound A” value ([1]; po, 20 mg/kg) is reported as 0.37 kg·h/L and the “AUC(0-144 h)norm of parent compound A” value [1, 8] is reported as 1.7 kg·h/L. The “AUC(0-72 h)norm of parent compound A” value [2, 7] was 6.0 kg·h/L, the “AUC(0-384 h)norm of parent compound A” value [2, 8] was 1.0 kg·h/L and the inhibition in vivo at 10 mg/kg (Dermacentor variabilis [3]; [9]) was 96%. It also gave an inhibition in vivo at 10 mg/kg (Dermacentor variabilis [3]; [10]) of 87%, an inhibition in vivo at 10 mg/kg (Dermacentor variabilis [3]; [11]) of 83% and an inhibition in vivo at 10 mg/kg (Dermacentor variabilis [3]; 552 h, study day 23, read-out: Efficacy SD23) of 93%. It also gave an inhibition in vivo at 10 mg/kg (Dermacentor variabilis [3]; 720 h, study day 30, read-out: Efficacy SD30) of 53%, an inhibition in vivo at 10 mg/kg (Dermacentor variabilis [3]; 888 h, study day 37, read-out: Efficacy SD37) of 32% and a pest or weed control at 10 mg/kg (Ctenocephalides felis [4]; [9]) of 84%. The pest or weed control at 10 mg/kg (Ctenocephalides felis [4]; [10]) was 68%, the pest or weed control at 10 mg/kg (Ctenocephalides felis [4]; [11]) was 71% and the “% Efficacy in study month 1” value (Ixodes ricinus; [12]) was 100%. The “% Efficacy in study month 2” value (Ixodes ricinus; [13]) was 100%, the “% Efficacy in study month 3” value (Ixodes ricinus; [14]) was 100% and the “% Efficacy in study month 4” value (Ixodes ricinus; [15]) was 100%. For the same molecule, the “% Efficacy in study month 5” value (Ixodes ricinus; [16]) was 98%, the “% Efficacy in study month 6” value (Ixodes ricinus; [17]) was 98% and the “% Efficacy in study month 6” value (Ixodes ricinus; sc, 5 mg/kg, study 3, month 6) was 3%. For the same molecule, the “% Efficacy in study month 1” value (Dermacentor variabilis [5]; [12]) was 98%, the “% Efficacy in study month 2” value (Dermacentor variabilis [5]; [13]) was 99% and the “% Efficacy in study month 3” value (Dermacentor variabilis [5]; [14]) was 100%. The “% Efficacy in study month 4” value (Dermacentor variabilis [5]; [15]) was 95%, the “% Efficacy in study month 5” value (Dermacentor variabilis [5]; [16]) was 98% and the “% Efficacy in study month 6” value (Dermacentor variabilis [5]; [17]) was 84%. For the same molecule, the “% Efficacy in study month 6” value (Dermacentor variabilis [5]; sc, 5 mg/kg, study 3, month 6) was 19%, the “% Efficacy in study month 1” value (Amblyomma americanum; iv, 2 × 5 mg/kg, study 2, month 1) was 100% and the “% Efficacy in study month 2” value (Amblyomma americanum; iv, 2 × 5 mg/kg, study 2, month 2) was 99%. The “% Efficacy in study month 3” value (Amblyomma americanum; iv, 2 × 5 mg/kg, study 2, month 3) was 99%, the “% Efficacy in study month 4” value (Amblyomma americanum; iv, 2 × 5 mg/kg, study 2, month 4) was 99% and the “% Efficacy in study month 5” value (Amblyomma americanum; iv, 2 × 5 mg/kg, study 2, month 5) was 95%. For the same molecule, the “% Efficacy in study month 6” value (Amblyomma americanum; iv, 2 × 5 mg/kg, study 2, month 6) was 98%, the “% Efficacy in study month 6” value (Amblyomma americanum; sc, 5 mg/kg, study 3, month 6) was 90% and the “% Efficacy in study month 1” value (Rhipicephalus sanguineus; [12]) was 100%. The “% Efficacy in study month 2” value (Rhipicephalus sanguineus; [13]) was 100%, the “% Efficacy in study month 3” value (Rhipicephalus sanguineus; [14]) was 100% and the “% Efficacy in study month 4” value (Rhipicephalus sanguineus; [15]) was 100%. The “% Efficacy in study month 5” value (Rhipicephalus sanguineus; [16]) was 100%, the “% Efficacy in study month 6” value (Rhipicephalus sanguineus; [17]) was 99% and the “% Efficacy in study month 6” value (Rhipicephalus sanguineus; sc, 5 mg/kg, study 3, month 6) was 50%. For the same molecule, the “% Efficacy in study month 1” value (Ctenocephalides felis [6]; study 1, month 1) was 100%, the “% Efficacy in study month 2” value (Ctenocephalides felis [6]; study 1, month 2) was 100% and the “% Efficacy in study month 3” value (Ctenocephalides felis [6]; study 1, month 3) was 100%. For the same molecule, the “% Efficacy in study month 4” value (Ctenocephalides felis [6]; study 1, month 4) was 100%, the “% Efficacy in study month 5” value (Ctenocephalides felis [6]; study 1, month 5) was 100% and the “% Efficacy in study month 6” value (Ctenocephalides felis [6]; study 1, month 6) was 100%.
